We go through 1 compound from patent publication US20130029858A1, “Method of Drug Screening through Quantitative Detection by Atomic Force Microscopy and Effective Protein Chips Development through Method Thereof” (NATIONAL APPLIED RESEARCH LABORATORIES, priority 2011, published 2013).

For this test, the target named is CD28/CD80 binding (Homo sapiens, UniProt P10747). Put plainly: AFM measurement of binding force between imm-CD28 on chips and afm-CD80 on probe, blocking by drug. The source says: (a) Immobilizing receptor and ligand [11]: At least one receptor is immobilized on a surface of each one of a plurality of chips and at least one ligand to the receptor is immobilized on a surface of a probe of an AFM. Therein, the chip can be extended to a micro-array chip immobilized with different kinds of receptors.
(b) Binding drug to receptor [12]: A drug is flowed through the chip to bind the drug to the receptor.
(c) Measuring binding force: The AFM is used to processing point-to-point detection for acquiring blocking effect by the drug according to the binding forces between the receptor and the ligand. If the binding force between the drug and the receptor is bigger than the binding force between the receptor and the ligand, the drug is identified as capable of breaking the bond between the receptor and the ligand, vice versa.
Take immuno-suppressive agent as an example. In FIG. 2, a receptor of T-cell membrane, CD28, is immobilized on chips, which is a protein labeled as imm-CD28 [21]. A ligand to CD28, ligand-CD80, is immobilized on a probe of an AFM, which is a receptor on immune B-cell membrane and is labeled as afm-CD80 [31]. Since the binding between CD80 and CD28 is related to human anaphylactic reaction, a small-molecule drug can be applied to block the binding between CD28 and CD80 for reducing immuno-reaction and anaphylactic reaction if the binding force between the drug and CD28 is bigger than that between CD80 and CD28.
Take an immuno-suppressive drug candidate, cynarin, as an example. The imm-CD28 [21] is immobilized on the chips and the afm-CD80 [31] is immobilized on the probe. Then the drug candidate, cynarin, is flowed through the chips to be bond with imm-CD28 [21] and separated from other components. In FIG. 3, a binding force (q1) between CD28 and CD80 on afm-CD80 [31] is great before adding cynarin. After adding the effective immuno-suppressive drug candidate 3, cynarin, the bond between CD28 and CD80 is blocked to form a very small binding force (q2). That is, q1>>q2. […]

Molecules are shown by their SMILES.

CD28/CD80 binding, sequence (P10747 19-152 limits assumed): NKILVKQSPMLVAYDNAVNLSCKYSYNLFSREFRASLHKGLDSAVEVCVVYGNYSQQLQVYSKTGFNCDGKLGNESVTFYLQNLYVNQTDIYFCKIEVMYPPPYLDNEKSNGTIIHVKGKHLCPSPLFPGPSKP

On to `O=C(/C=C/c1ccc(O)c(O)c1)O[C@@H]1C[C@@](OC(=O)/C=C/c2ccc(O)c(O)c2)(C(=O)O)C[C@@H](O)[C@@H]1O` [cynarin], for which the “difference between the binding forces before and after adding cynarin (q1−q2)” value (167 pN−90 pN) is recorded as “about 77 pN”. The “average binding force between CD28 and CD80 after adding cynarin (q2)” value (after adding cynarin, average of 100 positions on chip, before adding about 167 pN±14 (q1), FIG. 4B) is “about 90 pN”. For the same compound, the “difference between the binding forces before and after adding cynarin, percent” value (relative to q1 167 pN) was approximately 46%.
